Reference: patent US20250361268A1, “NOVEL ANTI-INFLAMMATORY PEPTIDE AND USE THEREOF” (NOVACELL TECHNOLOGY INC., priority 2022, published 2025)
Peptide text beside a SMILES is read from it.

Key:
FPR1 = biological target: T1, FPR1 (Homo sapiens, UniProt P21462); test: Change in calcium activity by peptide, FPR1 activation effect; type: cell-based; conditions: calcium activity (Fura-2), graded per Table 3, read-out: EC50 for [Ca^2+] FPR1
T1 sequence (P21462 1-350): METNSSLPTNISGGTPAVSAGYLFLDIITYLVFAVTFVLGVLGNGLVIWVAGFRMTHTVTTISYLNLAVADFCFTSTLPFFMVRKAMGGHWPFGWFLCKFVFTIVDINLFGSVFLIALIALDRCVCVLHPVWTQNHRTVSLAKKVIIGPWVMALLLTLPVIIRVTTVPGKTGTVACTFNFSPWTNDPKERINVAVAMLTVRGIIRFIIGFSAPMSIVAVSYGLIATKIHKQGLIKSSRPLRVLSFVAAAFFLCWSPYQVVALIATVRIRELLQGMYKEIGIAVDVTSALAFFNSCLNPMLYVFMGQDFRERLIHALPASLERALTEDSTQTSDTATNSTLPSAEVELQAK
Procedure: The day before measuring calcium activity, the cells were prepared at 3×10^5 cells per well in a 96-well flat clear bottom black plate (Costar, #3603). The prepared cells were treated with a Fura-2 QBT calcium kit (component A; Molecular Devices, #8197) at the same volume per well. After incubation at 37° C. for 1 hour, the cells were incubated in a dark room at room temperature for 30 minutes. After the Fura-2-treated cells, the prepared peptide, and a dedicated tip were placed at each section of FlexStation 3 Multi-Mode Microplate Reader (Molecular Devices, #Flex3), changes in calcium activity caused by the peptides were measured using SoftMax Pro 7 Software (Molecular Devices, #FLEX3-INSTALL-OS). […]

FPR2 = biological target: T2, FPR2 (Homo sapiens, UniProt P25090); test: Change in calcium activity by peptide (Fura-2) in RBL cells overexpressing FPR2; type: cell-based; conditions: calcium activity (Fura-2), graded per Table 3, read-out: EC50 for [Ca^2+] FPR2
T2 construct: expressed in transfected cells; host or cells: RBL cells (RBL-FPR2)
T2 sequence (P25090 1-351): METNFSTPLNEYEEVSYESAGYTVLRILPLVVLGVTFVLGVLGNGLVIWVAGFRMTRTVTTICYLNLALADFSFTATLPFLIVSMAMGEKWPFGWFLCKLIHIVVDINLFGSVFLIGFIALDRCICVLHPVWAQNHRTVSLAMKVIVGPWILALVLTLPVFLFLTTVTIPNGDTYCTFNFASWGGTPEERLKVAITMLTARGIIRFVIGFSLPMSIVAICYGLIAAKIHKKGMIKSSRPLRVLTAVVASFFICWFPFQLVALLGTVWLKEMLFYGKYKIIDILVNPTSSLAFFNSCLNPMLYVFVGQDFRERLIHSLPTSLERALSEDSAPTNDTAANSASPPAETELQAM
Procedure: The present inventors observed changes in calcium ion permeability to confirm whether the immunomodulatory peptide candidates prepared according to one example of the present invention activate the immune function of a living organism. Specifically, the concentration of calcium ions in cells was measured to confirm whether the peptides activate FPR2.
A peptide dissolved in water or 50% DMSO at a concentration of 0.5 mM was prepared by diluting it to an appropriate concentration in HBSS (Sigma, #55037C)+20 mM HEPES buffer.
In this experiment, the cells were cultured in DMEM (Lonza, #BE12-604F) containing 10% fetal bovine serum (FBS) and 1% penicillin-streptomycin under conditions of 37° C. and 5% CO2.
The day before measuring calcium activity, the cells were prepared at 3×10^5 cells per well in a 96-well flat clear bottom black plate (Costar, #3603). The prepared cells were treated with a Fura-2 QBT calcium kit (component A; Molecular Devices, #8197) at the same volume per well. After incubation at 37° C. for 1 hour, the cells were incubated in a dark room at room temperature for 30 minutes. After the Fura-2-treated cells, the prepared peptide, and a dedicated tip were placed at each section of FlexStation 3 Multi-Mode Microplate Reader (Molecular Devices, #Flex3), changes in calcium activity caused by the peptides were measured using SoftMax Pro 7 Software (Molecular Devices, #FLEX3-INSTALL-OS).

SMILES | EC50 (FPR1) [nM] | EC50 (FPR2) [nM]
CCCCCCCC(=O)N[C@@H](CCCCN)C(=O)N[C@@H](CCSC)C(=O)N[C@@H](CCCCN)C(=O)N[C@@H](Cc1ccc(O)cc1)C(=O)N[C@@H](CCCCN)C(=O)N[C@H](C(=O)N[C@H](CCSC)C(N)=O)C(C)C [Peptide 12] (HELM PEPTIDE1{[CCCCCCCC(=O)[*:2]].K.M.K.Y.K.V.[dM].[am]}$$$$V2.0) | > 10000 | 11 to 100
CSCC[C@@H](NC(=O)[C@H](Cc1ccc(O)cc1)NC(=O)[C@H](Cc1c[nH]c2ccccc12)NC(=O)[C@H](Cc1ccc(O)cc1)NC(=O)[C@H](CCCNC(=N)N)NC(=O)[C@H](Cc1c[nH]c2ccccc12)NC(=O)[C@@H](N)CCCNC(=N)N)C(N)=O [Peptide 77] (HELM PEPTIDE1{R.W.R.Y.W.Y.[dM].[am]}$$$$V2.0) | > 10000 | 11 to 100
CSCC[C@H](NC(C)=O)C(=O)N[C@@H](CCCNC(=N)N)C(=O)N[C@@H](Cc1ccc(O)cc1)C(=O)N[C@@H](Cc1c[nH]c2ccccc12)C(=O)N[C@@H](Cc1ccc(O)cc1)C(=O)N[C@H](CCSC)C(N)=O [Peptide 86] (HELM PEPTIDE1{[ac].M.R.Y.W.Y.[dM].[am]}$$$$V2.0) | > 10000 | < 10
CSCC[C@@H](NC(=O)[C@@H](NC(=O)[C@H](Cc1c[nH]c2ccccc12)NC(=O)[C@H](Cc1ccc(O)cc1)NC(=O)[C@H](CCCNC(=N)N)NC(=O)[C@H](Cc1c[nH]c2ccccc12)NC(=O)[C@@H](N)CCCNC(=N)N)C(C)C)C(N)=O [Peptide 101] (HELM PEPTIDE1{R.W.R.Y.W.V.[dM].[am]}$$$$V2.0) | 1000 to 10000 | < 10
CCCC(=O)N[C@@H](CCCNC(=N)N)C(=O)N[C@@H](CCSC)C(=O)N[C@@H](CCCNC(=N)N)C(=O)N[C@@H](Cc1ccc(O)cc1)C(=O)N[C@@H](CCCCN)C(=O)N[C@H](C(=O)N[C@H](CCSC)C(N)=O)C(C)C [Peptide 7] (HELM PEPTIDE1{[CCCC(=O)[*:2]].R.M.R.Y.K.V.[dM].[am]}$$$$V2.0) | > 10000 | < 10
CSCC[C@@H](NC(=O)[C@@H](NC(=O)[C@H](Cc1c[nH]c2ccccc12)NC(=O)[C@H](Cc1ccc(O)cc1)NC(=O)[C@H](CCCCN)NC(=O)[C@H](Cc1c[nH]c2ccccc12)NC(=O)[C@H](CCCCN)NC(C)=O)C(C)C)C(N)=O [Peptide 103] (HELM PEPTIDE1{[ac].K.W.K.Y.W.V.[dM].[am]}$$$$V2.0) | 1000 to 10000 | 11 to 100
CSCC[C@@H](NC(=O)[C@H](Cc1ccc(O)cc1)NC(=O)[C@H](CCCCN)NC(=O)[C@H](Cc1ccc(O)cc1)NC(=O)[C@H](CCCNC(=N)N)NC(=O)[C@H](Cc1c[nH]c2ccccc12)NC(=O)[C@H](CCCNC(=N)N)NC(C)=O)C(N)=O [Peptide 33] (HELM PEPTIDE1{[ac].R.W.R.Y.K.Y.[dM].[am]}$$$$V2.0) | > 10000 | < 10
CSCC[C@@H](NC(=O)[C@H](Cc1ccc(O)cc1)NC(=O)[C@H](CC(C)C)NC(=O)[C@H](Cc1ccc(O)cc1)NC(=O)[C@H](CCCNC(=N)N)NC(=O)[C@H](Cc1c[nH]c2ccccc12)NC(=O)[C@@H](N)CCCNC(=N)N)C(N)=O [Peptide 154] (HELM PEPTIDE1{R.W.R.Y.L.Y.[dM].[am]}$$$$V2.0) | > 10000 | < 10
CSCC[C@@H](NC(=O)[C@@H]1CCCN1C(=O)[C@H](Cc1c[nH]c2ccccc12)NC(=O)[C@H](Cc1ccc(O)cc1)NC(=O)[C@H](CCCNC(=N)N)NC(=O)[C@@H](N)Cc1c[nH]c2ccccc12)C(N)=O [Peptide 118] (HELM PEPTIDE1{W.R.Y.W.P.[dM].[am]}$$$$V2.0) | 101 to 1000 | < 10
CCCCCCCC(=O)N[C@@H](CCCNC(=N)N)C(=O)N[C@@H](Cc1c[nH]c2ccccc12)C(=O)N[C@@H](CCCNC(=N)N)C(=O)N[C@@H](Cc1ccc(O)cc1)C(=O)N[C@@H](CCCCN)C(=O)N[C@H](C(=O)N[C@H](CCSC)C(N)=O)C(C)C [Peptide 2] (HELM PEPTIDE1{[CCCCCCCC(=O)[*:2]].R.W.R.Y.K.V.[dM].[am]}$$$$V2.0) | 1000 to 10000 | 11 to 100
CCCC(=O)N[C@@H](CCSC)C(=O)N[C@@H](CCCCN)C(=O)N[C@@H](Cc1ccc(O)cc1)C(=O)N[C@@H](Cc1c[nH]c2ccccc12)C(=O)N[C@@H](Cc1ccc(O)cc1)C(=O)N[C@H](CCSC)C(N)=O [Peptide 91] (HELM PEPTIDE1{[CCCC(=O)[*:2]].M.K.Y.W.Y.[dM].[am]}$$$$V2.0) | > 10000 | 11 to 100

The remaining lines, values ahead:

EC50 (FPR1) [nM] | EC50 (FPR2) [nM] | SMILES
1000 to 10000 | < 10 | CSCC[C@@H](NC(=O)[C@@H]1CCCN1C(=O)[C@H](CCCCN)NC(=O)[C@H](Cc1ccc(O)cc1)NC(=O)[C@H](CCCNC(=N)N)NC(=O)[C@H](Cc1c[nH]c2ccccc12)NC(C)=O)C(N)=O [Peptide 76] (HELM PEPTIDE1{[ac].W.R.Y.K.P.[dM].[am]}$$$$V2.0)
> 10000 | < 10 | CSCC[C@H](NC(=O)[C@H](CCCCN)NC(C)=O)C(=O)N[C@@H](CCCCN)C(=O)N[C@@H](Cc1ccc(O)cc1)C(=O)N[C@@H](CCCCN)C(=O)N1CCC[C@H]1C(=O)N[C@H](CCSC)C(N)=O [Peptide 67] (HELM PEPTIDE1{[ac].K.M.K.Y.K.P.[dM].[am]}$$$$V2.0)
> 10000 | < 10 | CCCCCCCC(=O)N[C@@H](Cc1c[nH]cn1)C(=O)N[C@@H](CCCCN)C(=O)N[C@@H](Cc1ccc(O)cc1)C(=O)N[C@@H](CCCCN)C(=O)N1CCC[C@H]1C(=O)N[C@H](CCSC)C(N)=O [Peptide 149] (HELM PEPTIDE1{[CCCCCCCC(=O)[*:2]].H.K.Y.K.P.[dM].[am]}$$$$V2.0)
> 10000 | < 10 | CSCC[C@@H](NC(=O)[C@@H](NC(=O)[C@H](CCCCN)NC(=O)[C@H](Cc1ccc(O)cc1)NC(=O)[C@H](CCCCN)NC(=O)[C@H](Cc1c[nH]c2ccccc12)NC(=O)[C@H](CCCCN)NC(C)=O)C(C)C)C(N)=O [Peptide 4] (HELM PEPTIDE1{[ac].K.W.K.Y.K.V.[dM].[am]}$$$$V2.0)
> 10000 | < 10 | CSCC[C@@H](NC(=O)[C@@H]1CCCN1C(=O)[C@H](CCCCN)NC(=O)[C@H](Cc1ccc(O)cc1)NC(=O)[C@H](CCCCN)NC(=O)[C@@H](N)Cc1c[nH]cn1)C(N)=O [Peptide 146] (HELM PEPTIDE1{H.K.Y.K.P.[dM].[am]}$$$$V2.0)
> 10000 | < 10 | CCCCCCCC(=O)N[C@@H](CCCNC(=N)N)C(=O)N[C@@H](CCSC)C(=O)N[C@@H](CCCNC(=N)N)C(=O)N[C@@H](Cc1ccc(O)cc1)C(=O)N[C@@H](CCCCN)C(=O)N1CCC[C@H]1C(=O)N[C@H](CCSC)C(N)=O [Peptide 53] (HELM PEPTIDE1{[CCCCCCCC(=O)[*:2]].R.M.R.Y.K.P.[dM].[am]}$$$$V2.0)
101 to 1000 | < 10 | CSCC[C@H](NC(=O)[C@H](CCCNC(=N)N)NC(C)=O)C(=O)N[C@@H](CCCNC(=N)N)C(=O)N[C@@H](Cc1ccc(O)cc1)C(=O)N[C@@H](Cc1c[nH]c2ccccc12)C(=O)N1CCC[C@H]1C(=O)N[C@H](CCSC)C(N)=O [Peptide 107] (HELM PEPTIDE1{[ac].R.M.R.Y.W.P.[dM].[am]}$$$$V2.0)
> 10000 | < 10 | CCCC(=O)N[C@H](C(=O)N[C@@H](CCCCN)C(=O)N[C@@H](Cc1ccc(O)cc1)C(=O)N[C@@H](CCCCN)C(=O)N[C@H](C(=O)N[C@H](CCSC)C(N)=O)C(C)C)[C@@H](C)CC [Peptide 136] (HELM PEPTIDE1{[CCCC(=O)[*:2]].I.K.Y.K.V.[dM].[am]}$$$$V2.0)
> 10000 | < 10 | CSCC[C@@H](NC(=O)[C@@H]1CCCN1C(=O)[C@H](CCCCN)NC(=O)[C@H](Cc1ccc(O)cc1)NC(=O)[C@H](CCCCN)NC(=O)[C@H](Cc1c[nH]cn1)NC(C)=O)C(N)=O [Peptide 147] (HELM PEPTIDE1{[ac].H.K.Y.K.P.[dM].[am]}$$$$V2.0)
